Results as given in patent US8232263B2, “17,20(Z)-dehydro vitamin D analogs and their uses” (Wisconsin Alumni Research Foundation, priority 2004, dated 2012).
“Also recorded” adds a separate entry of the source.

Legend:
[1] = Intestinal calcium transport, everted gut sac method, in vitamin D-deficient rats; format: in vivo, Sprague-Dawley rats; details: VIT-III 260, 2340 or 7020 pmol/day versus 1,25(OH)2D3 260 pmol/day, FIG. 5
Description: (§1) Male, weanling Sprague-Dawley rats were placed on Diet 11 (Suda et al, J. Nutr. 100:1049, 1970) (0.47% Ca)+vitamins AEK for one week followed by Diet 11 (0.02% Ca)+vitamins AEK for 3 weeks. The rats were then switched to the same diet containing 0.47% Ca for one week followed by two weeks on the same diet containing 0.02% Ca. Dose administration began during the last week on 0.02% calcium diet. Four consecutive ip doses were given approximately 24 hours apart. Twenty-four hours after the last dose, blood was collected from the severed neck and the concentration of serum calcium determined by atomic absorption spectrometry as a measure of bone calcium mobilization. The first 10 cm of the intestine was also collected for intestinal calcium transport analysis using the everted gut sac method.
(§2) Antagonism was tested by administering a combination of 1,25(OH)2D3 and the compound to the animal simultaneously.

[2] = biological target: T1, full-length recombinant rat vitamin D receptor (Rattus norvegicus, UniProt P13053); test: Vitamin D receptor binding, competition with [3H]-1,25(OH)2D3; details: FIG. 1
T1 construct: Full-length recombinant rat receptor was expressed in E. coli BL21 (DE3) Codon Plus RIL cells; histidine tag (C); made in house; host or cells: E. coli BL21 (DE3) Codon Plus RIL
T1 sequence (P13053 1-423): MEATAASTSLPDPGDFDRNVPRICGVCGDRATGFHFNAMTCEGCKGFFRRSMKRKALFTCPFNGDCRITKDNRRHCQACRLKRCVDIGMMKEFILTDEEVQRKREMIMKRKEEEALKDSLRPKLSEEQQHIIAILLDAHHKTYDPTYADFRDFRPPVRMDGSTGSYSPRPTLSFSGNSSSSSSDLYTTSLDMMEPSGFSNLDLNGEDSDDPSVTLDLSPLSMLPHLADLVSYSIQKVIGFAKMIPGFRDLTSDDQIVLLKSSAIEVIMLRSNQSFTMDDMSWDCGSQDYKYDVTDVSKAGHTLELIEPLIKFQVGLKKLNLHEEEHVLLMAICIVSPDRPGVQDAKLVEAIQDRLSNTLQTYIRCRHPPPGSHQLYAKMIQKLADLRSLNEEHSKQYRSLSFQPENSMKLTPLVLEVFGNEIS
Description: Full-length recombinant rat receptor was expressed in E. coli BL21 (DE3) Codon Plus RIL cells and purified to homogeneity using two different column chromatography systems. The first system was a nickel affinity resin that utilizes the C-terminal histidine tag on this protein. The protein that was eluted from this resin was further purified using ion exchange chromatography (S-Sepharose Fast Flow). Aliquots of the purified protein were quick frozen in liquid nitrogen and stored at −80° C. until use. For use in binding assays, the protein was diluted in TEDK50 (50 mM Tris, 1.5 mM EDTA, pH7.4, 5 mM DTT, 150 mM KCl) with 0.1% Chaps detergent. The receptor protein and ligand concentration was optimized such that no more than 20% of the added radiolabeled ligand was bound to the receptor.
Radiolabeled and unlabeled ligands were added to 100 mcl of the diluted protein at a final ethanol concentration of ≦10%, mixed and incubated overnight on ice to reach binding equilibrium. The following day, 100 mcl of hydroxylapatite slurry (50%) was added to each tube and mixed at 10-minute intervals for 30 minutes. The hydroxylapaptite was collected by centrifugation and then washed three times with Tris-EDTA buffer (50 mM Tris, 1.5 mM EDTA, pH 7.4) containing 0.5% Titron X-100. […] Total binding was determined from the tubes containing only radiolabeled ligand.

[3] = system: 24-hydroxylase (24Ohase) gene promoter in ROS 17/2.8 (bone) cells; test: In vitro transcription assay (luciferase reporter); format: cell-based; details: FIG. 3; for EC50: ROS 17/2.8 cells, 24Ohase promoter-luciferase, sixteen hours after dosing, read-out: EC50, transcriptional activity in bone cells
Description: Transcription activity was measured in ROS 17/2.8 (bone) cells that were stably transfected with a 24-hydroxylase (24Ohase) gene promoter upstream of a luciferase reporter gene (Arbour et al., 1998). Cells were given a range of doses. Sixteen hours after dosing the cells were harvested and luciferase activities were measured using a luminometer. RLU=relative luciferase units.

[4] = system: Human promyelocytic leukemia (HL60) cells; test: HL-60 differentiation (nitro blue tetrazolium reduction); format: cell-based; details: FIG. 2; for EC50: HL60 cells, four days after treatment
Description: The study drugs were dissolved in ethanol and the concentrations determined using UV spectrophotometry. Serial dilutions were prepared so that a range of drug concentrations could be tested without changing the final concentration of ethanol (≦0.2%) present in the cell cultures.
Human promyelocytic leukemia (HL60) cells were grown in RPMI-1640 medium containing 10% fetal bovine serum. The cells were incubated at 37° C. in the presence of 5% CO2.
HL60 cells were plated at 1.2×10^5 cells/ml. Eighteen hours after plating, cells in duplicate were treated with drug. Four days later, the cells were harvested and a nitro blue tetrazolium reduction assay was performed (Collins et al., 1979; J. Exp. Med. 149:969-974). The percentage of differentiated cells was determined by counting a total of 200 cells and recording the number that contained intracellular black-blue formazan deposits. Verification of differentiation to monocytic cells was determined by measuring phagocytic activity (data not shown).

[5] = Bone calcium mobilization (serum calcium) in vitamin D-deficient rats; format: in vivo, Sprague-Dawley rats
Description: as §1, §2

binding to the receptor as compared to 1,25-(OH)2D3 ([2]; full length recombinant rat VDR) | Ki ([2]; full-length recombinant rat VDR) | EC50 ([4]; Homo sapiens, HL-60, 96 h) | SMILES | intestinal calcium transport activity as compared to 1,25(OH)2D3 [1] | transcriptional activity in bone cells as compared to 1α,25-dihydroxyvitamin D3 [3] | EC50 [3] | HL-60 cell differentiation potency as compared to 1,25(OH)2D3 [4] | mobilization of bone calcium (serum calcium) ([5]; 260 pmol/day for 4 consecutive days) | mobilization of bone calcium (serum calcium) ([5]; 2340 pmol/day and then 7020 pmol/day) | EC50 [4] | serum calcium levels ([5]; native hormone at the dosage tested, FIG. 4)
bound equally well | 0.05 nM | 0.37 nM | C=C1[C@H](O)CC(=C/C=C2\CCC[C@]3(C)/C(=C(/C)CCCC(C)(C)O)CC[C@@H]23)C[C@H]1O [VIT-III, 17(Z)-1α,25-dihydroxy-17(20)-dehydro-2-methylene-19-norvitamin D3] | significant increase in intestinal calcium transport activity; also recorded: relatively high activity | about the same transcriptional activity | 0.0044 nM | as potent as 1,25(OH)2D3 | significant mobilization of bone calcium | progressively increasing serum calcium levels well above the effects seen with 1,25(OH)2D3 | – | –
– | – | – | C=C1/C(=C\C=C2/CCC[C@]3(C)[C@@H]([C@H](C)CCCC(C)(C)O)CC[C@@H]23)C[C@@H](O)C[C@@H]1O [1α,25-dihydroxyvitamin D3, reference compound] | – | – | 0.29 nM | – | – | – | 1.3 nM | increased serum calcium levels
